Experimental data as given in paper PMC3476531, “Synergy of Peptide and Sugar in O-GlcNAcase Substrate Recognition” (Chemistry & Biology, 2012).
Numbering of substitutions follows the chain as printed. Like-named read-outs stand apart in the source and are kept apart here.

Columns and labels:
[1] = target: T1, hOGA Y69S (Homo sapiens, UniProt O60502, Y69S); test: hOGA Y69S mutant glycopeptide hydrolysis, substrate competition assay; format: biochemical; conditions: hOGA point mutant Y69S; competition with 4MU-GlcNAc; 37°C, pH 7.4; triplicate; read-out: Michaelis constant (KM) for hOGA Y69S
T1 construct: GST (N); made in house; host or cells: transiently transfected HEK293 cells
T1 sequence (O60502 1-916 Y69S): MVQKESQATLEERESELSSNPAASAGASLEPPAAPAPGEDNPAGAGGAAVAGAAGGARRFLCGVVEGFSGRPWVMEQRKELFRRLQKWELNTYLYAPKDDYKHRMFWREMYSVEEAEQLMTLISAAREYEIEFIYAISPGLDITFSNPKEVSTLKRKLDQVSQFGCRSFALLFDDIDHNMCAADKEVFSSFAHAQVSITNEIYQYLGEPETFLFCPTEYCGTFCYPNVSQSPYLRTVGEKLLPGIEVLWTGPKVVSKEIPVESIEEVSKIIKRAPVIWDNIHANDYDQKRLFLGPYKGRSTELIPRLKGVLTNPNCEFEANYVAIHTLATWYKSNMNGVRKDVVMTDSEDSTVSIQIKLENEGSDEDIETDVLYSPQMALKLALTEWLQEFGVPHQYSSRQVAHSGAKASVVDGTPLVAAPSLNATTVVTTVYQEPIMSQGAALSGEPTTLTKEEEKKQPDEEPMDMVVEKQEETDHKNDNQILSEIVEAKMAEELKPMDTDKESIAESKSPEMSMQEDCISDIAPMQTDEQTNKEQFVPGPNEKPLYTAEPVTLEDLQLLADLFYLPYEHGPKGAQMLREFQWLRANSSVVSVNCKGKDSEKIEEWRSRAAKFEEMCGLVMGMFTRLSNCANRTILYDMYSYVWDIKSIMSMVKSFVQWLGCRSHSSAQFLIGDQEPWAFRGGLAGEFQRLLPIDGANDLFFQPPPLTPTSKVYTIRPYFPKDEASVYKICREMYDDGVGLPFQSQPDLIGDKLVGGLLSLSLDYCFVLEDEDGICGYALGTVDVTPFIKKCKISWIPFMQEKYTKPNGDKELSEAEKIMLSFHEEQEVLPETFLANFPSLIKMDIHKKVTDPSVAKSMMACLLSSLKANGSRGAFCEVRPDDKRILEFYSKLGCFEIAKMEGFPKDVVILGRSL

[2] = target: T2, hOGA (Homo sapiens, UniProt O60502); parameters: GST (N); made in house; conditions: wild-type hOGA; substrate competition assay with 4MU-GlcNAc; value reproduced from earlier paper; ref Schimpl et al., 2010; read-out: Michaelis constant (KM) of glycopeptide substrate for hOGA; cited from earlier work
T2 sequence (O60502 1-916): T1 sequence (O60502 1-916 Y69S) with S69Y
From the text: Table 1 Hydrophobic Stacking Interactions of Tyr69 Are Essential for Substrate Binding by hOGA | column: hOGA Peptide / VAHS(O-GlcNAc)GAK || Table 2 Intramolecular Hydrogen Bonds Stabilize the Substrate Conformation and Reduce the Km for hOGA | column: TAB1 Peptide (Ser395) || Figure 1 OGA Binds Different O-GlcNAc Glycopeptides with Similar Conformation but Different Affinities (A) Origin and sequence of O-GlcNAc peptides. The sequence of the longest peptides used is given, with residues observed in the crystal structure highlighted by colored boxes, and the shorter peptides indicated by brackets.

[3] = target: T2, hOGA; test: hOGA glycopeptide hydrolysis, substrate competition assay with 4MU-GlcNAc reporter; format: biochemical; parameters: GST (N); made in house; host or cells: transiently transfected HEK293 cells; conditions: wild-type full-length hOGA, competition with 4MU-GlcNAc reporter substrate, 37°C, 50 mM citrate-phosphate buffer pH 7.4, 0.1 mg/ml BSA, triplicate, ± error of curve-fit, read-out: Michaelis constant (KM) of glycopeptide substrate for hOGA
Protocol: Protein was expressed in transiently transfected HEK293 cells and purified via glutathione sepharose affinity chromatography.
hOGA and CpOGA glycopeptide hydrolysis assays were carried out as described previously ([Dorfmueller et al., 2006; Schimpl et al., 2010]) using multisubstrate enzyme kinetics with the fluorigenic pseudosubstrate 4MU-GlcNAc as the reporter substrate. […] Reactions were performed at 37°C in 50 mM citrate-phosphate buffer (pH 7.4) and 0.1 mg/ml BSA. Experiments were performed in triplicate, and data were analyzed and plotted with GraphPad PRISM.

Substance | Km [1] [µM] | Km [2] [µM] | Km ([3]; listed as PVSVPYS(O-GlcNAc)SAQSTS) [µM] | Km [3] [µM]
VAHS(O-GlcNAc)GAK [hOGA (Ser405) 7, 7-residue O-GlcNAc glycopeptide derived from hOGA Ser405 site] | > 4000 | 790 ± 40 |  | 
PVSVPYS(O-GlcNAc)SAQSTS [TAB1 (Ser395) 13, 13-residue O-GlcNAc glycopeptide derived from TAB1 Ser395 site] | > 4000 |  | 940 ± 80 | 900 ± 30
p53 (Ser149) 11: 11-residue O-GlcNAc glycopeptide derived from p53 Ser149 site | 290 ± 20 |  |  | 21 ± 3
